One assay has as its system rat ileum mucosa. The assay is described as follows: Carbachol-evoked Isc in rat ileum mucosa (selectivity test). The following applies: carbachol at two concentrations, ascending cumulative, serosal side.
Assay [1] concerns the target T1, GPR73 (prokineticin 1 receptor) (Homo sapiens, UniProt Q8TCW9).
T1 construct: expressed in transfected cells; host or cells: HEK 293
The assay is described as follows: PK1 functional assay: Ca2+ mobilization on the FLIPR. In kind it is cell-based. The following applies: for IC50: HEK 293 GPR73 cells, read-out: Ca^2+ Mobilization IC50. How it is done:
At a time of 24 h prior to running the assay, in cell culture media (DMEM containing high Glucose and L-glutamine, 10% FBS, 1% Pen/Streptomycin, 1% Sodium Pyruvate, 20 mM HEPES, Zeocin 200 mg/L), 100 µL of 1.3*10^6/ml HEK 293 GPR73 (prokineticin 1 receptor) expressing cells were plated in a 96 well poly-d-lysine coated plate (Costar), and incubated at 37° C. and 5% CO2. On the day in which the assay was run, the media was removed and 200 µL of 5× Calcium Plus Dye (Molecular Devices) which was previously resuspended with 200 mL of assay buffer [HBSS w/Ca^2+ and Mg^2+ w/o phenol red, 20 mM HEPES, 0.1% BSA, 10 mL probenecid (710 mg probenecid in 5 mL of 1N NaOH, to which was then added 5 mL HBSS containing 20 mM HEPES)] was added to each well of the 96-well plate. The plate was incubated at 37° C. and 5% CO2 for 30 min in dark. The plate was removed and allowed to reach RT for 15 min in the dark. The assay was then run on the FLIPR. In Brief: base line read for 1 min, compound added (25 μL) and incubated for 4 min, 15 seconds, PK1 ligand preparation added (25 μL) for a final concentration of a previously determined EC50 and fluorescence was counted for 1 min, 45 seconds. Baseline is described as the amount of relative fluorescence read when buffer alone is added to cells. Baseline was subtracted from all wells. Percent of control was calculated as follows: (Baseline subtracted well value is divided by baseline subtracted max value)*100. Percent inhibition is 100 minus the percent of control value.
The IC50 is defined as the amount of a given compound required to inhibit 50% of the maximum signal that is generated by the concentration of PK1 preparation used in our assay. IC50 values were calculated using GraphPad Prism.

Assay [2] concerns isolated rat ileum mucosa.
The next assay deals with T2, PK1 receptor (Rattus norvegicus, UniProt Q8R416).
T2 construct: The PK1 evoked increase in Isc requires the presence of endogenous PK1 receptors; from tissue; host or cells: rat ileum mucosa (Ussing-type chambers)
Nature of the assay: Suppression of PK1 evoked increase in Isc in isolated rat ileum mucosa. The following applies: test compound 1 µM, 15 min; PK1 10 and 100 nM cumulative. Here is the method:
Methodology. The basic methodology for Ussing-type ion flux chambers used in these studies was the same as that described in detail above with the following modifications to the experimental protocol. […] The responses to two sequential EFS were used to gauge tissue viability and comparability of the responses of individual tissues from each rat and between rats. Tissue conductance was measured at periodic intervals as changes in the amplitudes of brief short-circuit current responses evoked by application of 1 mV amplitude bi-polar pulses from a pulse generator using Ohm's Law. Three to four tissues from each rat were studied. The tissues from a given animal were grouped and assigned accordingly: one control tissue which received only vehicle followed by two consecutive doses of PK-1 ligand added in a cumulative fashion to the basolateral surface of the tissue; the remaining two to three tissues from the same animal were assigned to be exposed to a given PK-1 receptor antagonist (e.g., 3-4 tissues from 1 rat: Control, Antagonist1, Antagonist2, and/or Antagonist3). Test compound was added to the basolateral tissue side reservoir at a final concentration of 1 µM and allowed a 15 minute incubation period prior to challenge with the PK1 peptide. […]

For assay [3], the system named is ileum mucosal tissues from PK1 receptor knock-out mice. The assay is described as follows: PK1-evoked Isc in ileum mucosal tissues from PK1 receptor knock-out mice. The following applies: exogenous PK1 peptide.
For a further assay, the system named is rat ileal tissues. The assay is described as follows: PK1-evoked short-circuit current (Isc) in rat ileum mucosa, Ussing-type flux chambers.

Where two headings read alike, the source gives them in different places.

For orientation: IC50 means the concentration needed to halve the response being measured. The EC50 is the concentration at which the effect is half-maximal.

T1 sequence (Q8TCW9 whole entry, species assumed): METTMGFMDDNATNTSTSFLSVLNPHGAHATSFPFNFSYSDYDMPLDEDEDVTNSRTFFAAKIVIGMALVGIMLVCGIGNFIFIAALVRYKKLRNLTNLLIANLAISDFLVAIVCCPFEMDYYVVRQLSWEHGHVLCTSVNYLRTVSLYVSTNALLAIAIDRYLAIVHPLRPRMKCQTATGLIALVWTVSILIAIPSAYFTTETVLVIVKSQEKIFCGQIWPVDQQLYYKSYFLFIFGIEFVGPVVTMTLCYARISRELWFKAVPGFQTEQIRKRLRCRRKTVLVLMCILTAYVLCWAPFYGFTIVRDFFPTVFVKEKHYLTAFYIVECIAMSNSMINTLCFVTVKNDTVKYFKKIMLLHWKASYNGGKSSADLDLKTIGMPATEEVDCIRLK
T2 sequence (Q8R416 whole entry): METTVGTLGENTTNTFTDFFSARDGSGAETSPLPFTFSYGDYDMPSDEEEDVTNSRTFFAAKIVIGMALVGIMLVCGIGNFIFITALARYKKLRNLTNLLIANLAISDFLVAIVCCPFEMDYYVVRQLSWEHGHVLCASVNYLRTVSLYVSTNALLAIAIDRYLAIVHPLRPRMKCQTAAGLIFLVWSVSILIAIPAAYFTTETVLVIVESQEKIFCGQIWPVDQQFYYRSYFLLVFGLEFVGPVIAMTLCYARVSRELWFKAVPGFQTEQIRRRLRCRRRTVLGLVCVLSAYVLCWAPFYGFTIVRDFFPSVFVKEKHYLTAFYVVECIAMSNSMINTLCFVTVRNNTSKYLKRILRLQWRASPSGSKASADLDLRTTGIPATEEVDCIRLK

For the molecule `COc1ccc(Cn2c(NCCn3c(N)nc4ccc(C)cc43)nc(=O)n(Cc3ccc(F)cc3)c2=O)cc1` [Cpd 3, 6-[2-(2-Amino-6-methyl-benzoimidazol-1-yl)-ethylamino]-3-(4-fluoro-benzyl)-1-(4-methoxy-benzyl)-1H-[1,3,5]triazine-2,4-dione], the “suppression of the pro-secretory effect of carbachol” value in the assay on rat ileum mucosa is given as “failed to suppress”. The “Ca^2+ Mobilization % Inh @10 µM” value was 94% in assay [1] (10 µM, (further determination)) and 96% in assay [1] (10 µM). For the same molecule, the IC50 in assay [1] (IC50 (further determination)) worked out at 29 nM; in assay [1] it was 8 nM. In assay [2], the “suppression of Cholera toxin induced increase in Isc (figure legends)” value is listed as “suppresses”. Moreover, the “suppression of the sustained increase in baseline Isc evoked by Cholera toxin” value in assay [2] is 50-60%. The “effect versus increased baseline Isc evoked by Vibrio cholera toxin” value in assay [2] (1 μM) is “no significant effect”. Further, on PK1 receptor, the “suppression of the PK1 evoked increase in Isc” value is listed as “suppresses”.

B1: PK1: Recombinant human prokineticin-1 expressed in HEK 293 cells; preparation holds full-length ligand and a four C-terminal residue truncated product (protein, UniProt P58294 20-105, looked up)
Prokineticin-1: AVITGACERDVQCGAGTCCAISLWLRGLRMCTPLGREGEECHPGSHKVPFFRKRKHHTCPCLPNLLCSRFPDGRYRCSMDLKNINF
modifications: mixture with C-terminally truncated product
notes: Recombinant human prokineticin-1 expressed in HEK 293 cells; preparation holds full-length ligand and a four C-terminal residue truncated product
As to B1, the “change in Isc compared to wild-type littermates” value in assay [3] is reported as “failed to elicit a significant change”. Besides, the “effect on tissue conductance (G)” value with rat ileal tissues was “no significant effect”. Further, the “increase in Isc from baseline” value with rat ileal tissues (10 nM PK1) is on record as 13.5±2. […]A/cm^2; in the assay on rat ileal tissues (100 nM PK1), 28.7±2.9 µA/cm^2. In addition, the EC50 in the assay with rat ileal tissues (read-out: EC50 of PK1-evoked increases in Isc, cumulative concentration-response, basolateral addition) was approximately 8.2 nM.

Values taken from US8324380B2, “Amino-heteroaryl-containing prokineticin 1 receptor antagonists” (Janssen Pharmaceutica NV, priority 2007, dated 2012).
